# Experimental data taken from patent publication US8664257B2, “Oxygen-substituted 3-heteroaroylamino-propionic acid derivatives and their use as pharmaceuticals” (Sanofi, priority 2010, dated 2014).
# Molecular target: T1, Recombinant human cathepsin A (Homo sapiens, UniProt P10619)
# T1 construct: Recombinant human cathepsin A (residues 29-480, with a C-terminal 10-His tag); 10-His (C); purchased R&D Systems 1049-SE
# T1 sequence (P10619 29-312 limits assumed): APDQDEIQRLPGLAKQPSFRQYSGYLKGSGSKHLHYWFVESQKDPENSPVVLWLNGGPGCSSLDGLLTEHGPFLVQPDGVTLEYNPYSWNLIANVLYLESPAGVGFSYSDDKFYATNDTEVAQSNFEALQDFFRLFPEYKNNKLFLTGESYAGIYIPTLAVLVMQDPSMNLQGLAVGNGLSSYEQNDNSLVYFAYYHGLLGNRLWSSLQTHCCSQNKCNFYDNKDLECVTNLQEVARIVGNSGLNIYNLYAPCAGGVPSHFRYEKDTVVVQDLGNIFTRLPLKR
# T1 sequence (P10619 327-480 limits assumed): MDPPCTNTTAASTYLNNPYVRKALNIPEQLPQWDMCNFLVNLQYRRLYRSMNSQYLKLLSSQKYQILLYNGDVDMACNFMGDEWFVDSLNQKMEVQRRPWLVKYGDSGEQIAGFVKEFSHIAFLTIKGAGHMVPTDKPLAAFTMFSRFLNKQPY
# Experiment: Cathepsin A inhibitory activity
# Format: biochemical
# Conditions: read-out: Activity (2): Cathepsin A inhibitory activity (IC50 class)
# In short: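 Human cathepsin A (res. 29-480, C-His10) pre-activated with cathepsin L (MES pH 6.0, DTT, 15 min, 37 °C; quenched with 10 μM E-64). Enzyme (833 ng/ml) preincubated 15 min RT with compound in MES pH 5.5/DTT, then 2 μM Bodipy FL-bradykinin for 15 min RT. Capillary electrophoresis product/substrate peak areas; IC50 from % inhibition.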
row,Compound,IC50
1,CCOCCOCCOc1cc(C(=O)N[C@@H](CC(=O)O)c2ccccc2C)nn1-c1ccccc1F [Example 637],< 100 nM
2,Cc1ccccc1[C@H](CC(=O)O)NC(=O)c1cc(OCC2CCCCC2)n(-c2ccccc2F)n1 [Example 638],< 100 nM
3,Cc1ccccc1[C@H](CC(=O)O)NC(=O)c1cc(OCCN2CCCC2=O)n(-c2ccccc2F)n1 [Example 639],< 100 nM
4,Cc1ccccc1[C@H](CC(=O)O)NC(=O)c1cc(OCc2ccccn2)n(-c2ccccc2F)n1 [Example 640],< 100 nM
5,Cc1ccccc1[C@H](CC(=O)O)NC(=O)c1cc(OCCCF)n(-c2ccccc2F)n1 [Example 641],< 100 nM
6,Cc1ccccc1[C@H](CC(=O)O)NC(=O)c1cc(OCC2CCCO2)n(-c2ccccc2F)n1 (some centres unmarked) [Example 642],< 100 nM
7,Cc1cc(COc2cc(C(=O)N[C@@H](CC(=O)O)c3ccccc3C)nn2-c2ccccc2F)on1 [Example 643],< 100 nM
8,Cc1ccccc1[C@H](CC(=O)O)NC(=O)c1cc(OCc2c(F)cccc2F)n(-c2ccccc2F)n1 [Example 644],< 100 nM
9,Cc1ccccc1[C@H](CC(=O)O)NC(=O)c1cc(OCC2CC2(F)F)n(-c2ccccc2F)n1 (some centres unmarked) [Example 645],< 100 nM
10,Cc1nc(COc2cc(C(=O)N[C@@H](CC(=O)O)c3ccccc3C)nn2-c2ccccc2F)cs1 [Example 646],< 100 nM
11,Cc1ccccc1[C@H](CC(=O)O)NC(=O)c1cc(OCc2ccon2)n(-c2ccccc2F)n1 [Example 647],< 100 nM
12,Cc1ccccc1[C@H](CC(=O)O)NC(=O)c1cc(OC2CCC2)n(-c2ccccc2F)n1 [Example 648],< 100 nM
13,Cc1ccccc1[C@H](CC(=O)O)NC(=O)c1cc(OCC2CCC2)n(-c2ccccc2F)n1 [Example 649],< 100 nM
14,Cc1ccccc1[C@H](CC(=O)O)NC(=O)c1cc(OCC2CCOC2)n(-c2ccccc2F)n1 (some centres unmarked) [Example 650],< 100 nM
15,Cc1ccccc1[C@H](CC(=O)O)NC(=O)c1cc(OCc2ccccc2)n(-c2ccccc2F)n1 [Example 651],< 100 nM
16,Cc1ccccc1[C@H](CC(=O)O)NC(=O)c1cc(OC[C@H]2CCC(=O)N2)n(-c2ccccc2F)n1 [Example 652],< 100 nM
17,Cc1ccccc1[C@H](CC(=O)O)NC(=O)c1cc(OCC2CCCCO2)n(-c2ccccc2F)n1 (some centres unmarked) [Example 653],< 100 nM
18,Cc1ccccc1[C@H](CC(=O)O)NC(=O)c1cc(OC[C@@H]2CCC(=O)N2)n(-c2ccccc2F)n1 [Example 654],< 100 nM
19,COc1cccc(COc2cc(C(=O)N[C@@H](CC(=O)O)c3ccccc3C)nn2-c2ccccc2F)c1 [Example 655],< 100 nM
20,Cc1cc(COc2cc(C(=O)N[C@@H](CC(=O)O)c3ccccc3C)nn2-c2ccccc2F)no1 [Example 657],< 100 nM
21,Cc1ccccc1[C@H](CC(=O)O)NC(=O)c1cc(OCc2ccno2)n(-c2ccccc2F)n1 [Example 658],< 100 nM

row,Compound,IC50
1,Cc1ccccc1[C@H](CC(=O)O)NC(=O)c1cc(OCCC(C)(C)C)n(-c2ccccc2F)n1 [Example 659],< 100 nM
2,CCCCCCOc1cc(C(=O)N[C@@H](CC(=O)O)c2ccccc2C)nn1-c1ccccc1F [Example 660],< 100 nM
3,CCOc1cc(C(=O)N[C@@H](CC(=O)O)c2ccccc2C)nn1-c1ccccc1F [Example 662],< 100 nM
4,Cc1ccccc1[C@H](CC(=O)O)NC(=O)c1cc(OCC2(C)COC2)n(-c2ccccc2F)n1 [Example 663],< 100 nM
5,COc1cc(C(=O)NC(CC(=O)O)c2cccc(F)c2C)nn1-c1ccccc1F (centres unmarked) [Example 664],< 100 nM
6,COc1cc(C(=O)N[C@@H](CC(=O)O)c2ccccc2)nn1-c1ccccc1F [Example 665],< 100 nM
7,COc1cc(C(=O)NC(CC(=O)O)c2ccc(C)cc2C)nn1-c1ccccc1F (centres unmarked) [Example 666],< 100 nM
8,COc1ccccc1[C@H](CC(=O)O)NC(=O)c1cc(OC)n(-c2ccccc2F)n1 [Example 667],100 to 1000 nM
9,COc1cc(C(=O)N[C@@H](CC(=O)O)c2ccc(C#N)cc2)nn1-c1ccccc1F [Example 668],100 to 1000 nM
10,COc1cccc([C@H](CC(=O)O)NC(=O)c2cc(OC)n(-c3ccccc3F)n2)c1 [Example 669],100 to 1000 nM
11,COc1cc(C(=O)N[C@@H](CC(=O)O)c2cccc(C)c2)nn1-c1ccccc1F [Example 670],< 100 nM
12,COc1cc(C(=O)N[C@@H](CC(=O)O)c2ccc(Cl)cc2)nn1-c1ccccc1F [Example 671],< 100 nM
13,"COc1ccc(C(CC(=O)O)NC(=O)c2cc(OC)n(-c3ccccc3F)n2)c(C)c1 (centres unmarked) [Example 672, 3-{[1-(2-Fluoro-phenyl)-5-methoxy-1H-pyrazole-3-carbonyl]-amino}-3-(4-methoxy-2-methyl-phenyl)-propionic acid]",< 100 nM
14,COc1cc(C(=O)N[C@@H](CC(=O)O)c2ccc(Cl)cc2Cl)nn1-c1ccccc1F [Example 673],< 100 nM
15,COc1cc(C(=O)N[C@@H](CC(=O)O)c2ccc(C(F)(F)F)cc2)nn1-c1ccccc1F [Example 674],< 100 nM
16,COc1cc(C(=O)N[C@@H](CC(=O)O)c2ccc(C)cc2)nn1-c1ccccc1F [Example 675],< 100 nM
17,COc1cc(C(=O)N[C@@H](CC(=O)O)c2ccccc2Cl)nn1-c1ccccc1F [Example 676],< 100 nM
18,COc1cc(C(=O)NC(CC(=O)O)c2ccc(F)cc2C)nn1-c1ccccc1F (centres unmarked) [Example 677],< 100 nM
19,COc1cc(C(=O)NC(CC(=O)O)c2ccc(F)cc2)nn1-c1ccccc1F (centres unmarked) [Example 678],100 to 1000 nM
20,COc1cc(C(=O)N[C@@H](CC(=O)O)c2ccccc2F)nn1-c1ccccc1F [Example 679],100 to 1000 nM
21,"COc1cc(C(=O)N[C@@H](CC(=O)O)c2ccccc2C(F)(F)F)nn1-c1ccccc1F [Example 680, (S)-3-{[1-(2-Fluoro-phenyl)-5-methoxy-1H-pyrazole-3-carbonyl]-amino}-3-(2-trifluoromethyl-phenyl)-propionic acid]",100 to 1000 nM

row,Compound,IC50
1,COc1cc(C(=O)N[C@@H](CC(=O)O)c2cccc(Cl)c2Cl)nn1-c1ccccc1F [Example 681],< 100 nM
2,"COc1cc(C(=O)NC(CC(=O)O)c2cccc(C)c2C)nn1-c1ccccc1F (centres unmarked) [Example 682, 3-(2,3-Dimethyl-phenyl)-3-{[1-(2-fluoro-phenyl)-5-methoxy-1H-pyrazole-3-carbonyl]-amino}-propionic acid]",< 100 nM
3,COc1cc(C(=O)NC(CC(=O)O)c2cc(Cl)ccc2Cl)nn1-c1ccccc1F (centres unmarked) [Example 683],< 100 nM
4,"Cc1c(F)cccc1C(CC(=O)O)NC(=O)c1cc(OCC2CC2)n(-c2ccccc2F)n1 (centres unmarked) [Example 684, 3-{[5-Cyclopropylmethoxy-1-(2-fluoro-phenyl)-1H-pyrazole-3-carbonyl]-amino}-3-(3-fluoro-2-methyl-phenyl)-propionic acid]",< 100 nM
5,O=C(O)C[C@H](NC(=O)c1cc(OCC2CC2)n(-c2ccccc2F)n1)c1ccccc1 [Example 685],< 100 nM
6,Cc1ccc(C(CC(=O)O)NC(=O)c2cc(OCC3CC3)n(-c3ccccc3F)n2)c(C)c1 (centres unmarked) [Example 686],< 100 nM
7,COc1ccccc1[C@H](CC(=O)O)NC(=O)c1cc(OCC2CC2)n(-c2ccccc2F)n1 [Example 687],100 to 1000 nM
8,N#Cc1ccc([C@H](CC(=O)O)NC(=O)c2cc(OCC3CC3)n(-c3ccccc3F)n2)cc1 [Example 688],< 100 nM
9,COc1cccc([C@H](CC(=O)O)NC(=O)c2cc(OCC3CC3)n(-c3ccccc3F)n2)c1 [Example 689],100 to 1000 nM
10,"Cc1cccc([C@H](CC(=O)O)NC(=O)c2cc(OCC3CC3)n(-c3ccccc3F)n2)c1 [Example 690, (S)-3-{[5-Cyclopropylmethoxy-1-(2-fluoro-phenyl)-1H-pyrazole-3-carbonyl]-amino}-3-m-tolyl-propionic acid]",< 100 nM
11,O=C(O)C[C@H](NC(=O)c1cc(OCC2CC2)n(-c2ccccc2F)n1)c1ccc(Cl)cc1 [Example 691],100 to 1000 nM
12,COc1ccc(C(CC(=O)O)NC(=O)c2cc(OCC3CC3)n(-c3ccccc3F)n2)c(C)c1 (centres unmarked) [Example 692],< 100 nM
13,O=C(O)C[C@H](NC(=O)c1cc(OCC2CC2)n(-c2ccccc2F)n1)c1ccc(Cl)cc1Cl [Example 693],100 to 1000 nM
14,O=C(O)C[C@H](NC(=O)c1cc(OCC2CC2)n(-c2ccccc2F)n1)c1ccc(C(F)(F)F)cc1 [Example 694],< 100 nM
15,Cc1ccc([C@H](CC(=O)O)NC(=O)c2cc(OCC3CC3)n(-c3ccccc3F)n2)cc1 [Example 695],< 100 nM
16,O=C(O)C[C@H](NC(=O)c1cc(OCC2CC2)n(-c2ccccc2F)n1)c1ccccc1Cl [Example 696],< 100 nM
17,O=C(O)CC(NC(=O)c1cc(OCC2CC2)n(-c2ccccc2F)n1)c1ccc(F)cc1 (centres unmarked) [Example 698],100 to 1000 nM
18,O=C(O)C[C@H](NC(=O)c1cc(OCC2CC2)n(-c2ccccc2F)n1)c1ccccc1F [Example 699],100 to 1000 nM
19,"Cc1ccccc1[C@H](CC(=O)O)NC(=O)c1cc(OCC(=O)C(C)(C)C)n(-c2ccccc2F)n1 [Example 700, (S)-3-{[5-(3,3-Dimethyl-2-oxo-butoxy)-1-(2-fluoro-phenyl)-1H-pyrazole-3-carbonyl]-amino}-3-o-tolyl-propionic acid]",< 100 nM
20,O=C(O)C[C@H](NC(=O)c1cc(OCC2CC2)n(-c2ccccc2F)n1)c1ccccc1C(F)(F)F [Example 701],100 to 1000 nM
